Data: ChEMBL document CHEMBL3627688, “Structure-based hybridization, synthesis and biological evaluation of novel tetracyclic heterocyclic azathioxanthone analogues as potential antitumor agents” (Eur J Med Chem, 2015)
pIC50: −log10 of the molar value.

Experiments:
[1] = Growth inhibition of human NCI-ADR-RES cells assessed as cell growth at 10 uM incubated for 48 hrs by sulforhodamine B assay; assay type: functional; conditions: read-out: Activity
[2] = Growth inhibition of human Hs 578T cells assessed as cell growth at 10 uM incubated for 48 hrs by sulforhodamine B assay; assay type: functional; conditions: read-out: Activity
A549 = assay: Growth inhibition of human A549/ATCC cells assessed as cell growth at 10 uM incubated for 48 hrs by sulforhodamine B assay; assay type: functional; conditions: A549, 48 h, read-out: Activity
SNB-75 = assay: Growth inhibition of human SNB75 cells assessed as cell growth at 10 uM incubated for 48 hrs by sulforhodamine B assay; assay type: functional; conditions: SNB-75, 48 h, read-out: Activity
HOP-62 = assay: Growth inhibition of human HOP62 cells assessed as cell growth at 10 uM incubated for 48 hrs by sulforhodamine B assay; assay type: functional; conditions: HOP-62, 48 h, read-out: Activity
[3] = Growth inhibition of human SF295 cells assessed as cell growth at 10 uM incubated for 48 hrs by sulforhodamine B assay; assay type: functional; conditions: SF-295, 48 h, read-out: Activity
SF-268 = assay: Growth inhibition of human SF268 cells assessed as cell growth at 10 uM incubated for 48 hrs by sulforhodamine B assay; assay type: functional; conditions: SF-268, 48 h, read-out: Activity
UACC-257 = assay: Growth inhibition of human UACC257 cells assessed as cell growth at 10 uM incubated for 48 hrs by sulforhodamine B assay; assay type: functional; conditions: UACC-257, 48 h, read-out: Activity
OVCAR-8 = assay: Growth inhibition of human OVCAR8 cells assessed as cell growth at 10 uM incubated for 48 hrs by sulforhodamine B assay; assay type: functional; conditions: OVCAR-8, 48 h, read-out: Activity
HT-29 = assay: Growth inhibition of human HT-29 cells assessed as cell growth at 10 uM incubated for 48 hrs by sulforhodamine B assay; assay type: functional; conditions: HT-29, 48 h, read-out: Activity
NCI-H460 = assay: Growth inhibition of human NCI-H460 cells assessed as cell growth at 10 uM incubated for 48 hrs by sulforhodamine B assay; assay type: functional; conditions: NCI-H460, 48 h, read-out: Activity
SK-MEL-2 = assay: Growth inhibition of human SK-MEL-2 cells assessed as cell growth at 10 uM incubated for 48 hrs by sulforhodamine B assay; assay type: functional; conditions: SK-MEL-2, 48 h, read-out: Activity
DU-145 = assay: Antiproliferative activity against human DU145 cells assessed as cell viability incubated for 72 hrs by MTT assay; assay type: functional, cell-based; conditions: DU-145, 72 h
[4] = Growth inhibition of human RXF393 cells assessed as cell growth at 10 uM incubated for 48 hrs by sulforhodamine B assay; assay type: functional; conditions: RXF 393, 48 h, read-out: Activity
IGROV-1 = assay: Growth inhibition of human IGROV1 cells assessed as cell growth at 10 uM incubated for 48 hrs by sulforhodamine B assay; assay type: functional; conditions: IGROV-1, 48 h, read-out: Activity
HL-60(TB) = assay: Growth inhibition of human HL-60(TB) cells assessed as cell growth at 10 uM incubated for 48 hrs by sulforhodamine B assay; assay type: functional; conditions: HL-60, 48 h, read-out: Activity
SN12C = assay: Growth inhibition of human SN12C cells assessed as cell growth at 10 uM incubated for 48 hrs by sulforhodamine B assay; assay type: functional; conditions: read-out: Activity
T47D = assay: Growth inhibition of human T47D cells assessed as cell growth at 10 uM incubated for 48 hrs by sulforhodamine B assay; assay type: functional; conditions: read-out: Activity
[5] = Growth inhibition of human HCC2998 cells assessed as cell growth at 10 uM incubated for 48 hrs by sulforhodamine B assay; assay type: functional; conditions: HCC 2998, 48 h, read-out: Activity
SK-MEL-5 = assay: Growth inhibition of human SK-MEL-5 cells assessed as cell growth at 10 uM incubated for 48 hrs by sulforhodamine B assay; assay type: functional; conditions: SK-MEL-5, 48 h, read-out: Activity
CAKI-1 = assay: Growth inhibition of human Caki1 cells assessed as cell growth at 10 uM incubated for 48 hrs by sulforhodamine B assay; assay type: functional; conditions: CAKI-1, 48 h, read-out: Activity
SR = assay: Growth inhibition of human SR cells assessed as cell growth at 10 uM incubated for 48 hrs by sulforhodamine B assay; assay type: functional; conditions: read-out: Activity
MDA-MB-435 = assay: Growth inhibition of human MDA-MB-435 cells assessed as cell growth at 10 uM incubated for 48 hrs by sulforhodamine B assay; assay type: functional; conditions: MDA-MB-435, 48 h, read-out: Activity
PC-3 = assay: Growth inhibition of human PC3 cells assessed as cell growth at 10 uM incubated for 48 hrs by sulforhodamine B assay; assay type: functional; conditions: PC-3, 48 h, read-out: Activity
NCI-H322M = assay: Growth inhibition of human NCI-H322M cells assessed as cell growth at 10 uM incubated for 48 hrs by sulforhodamine B assay; assay type: functional; conditions: read-out: Activity
K562 = assay: Growth inhibition of human K562 cells assessed as cell growth at 10 uM incubated for 48 hrs by sulforhodamine B assay; assay type: functional; conditions: K562, 48 h, read-out: Activity
MDA-MB-468 = assay: Growth inhibition of human MDA-MB-468 cells assessed as cell growth at 10 uM incubated for 48 hrs by sulforhodamine B assay; assay type: functional; conditions: MDA-MB-468, 48 h, read-out: Activity
U-251 = assay: Growth inhibition of human U251 cells assessed as cell growth at 10 uM incubated for 48 hrs by sulforhodamine B assay; assay type: functional; conditions: U-251, 48 h, read-out: Activity
[6] = Growth inhibition of human NCI60 cells assessed as cell growth at 10 uM incubated for 48 hrs by sulforhodamine B assay; assay type: functional; conditions: NCI60, 48 h, read-out: Activity
NCI-H226 = assay: Growth inhibition of human NCI-H226 cells assessed as cell growth at 10 uM incubated for 48 hrs by sulforhodamine B assay; assay type: functional; conditions: NCI-H226, 48 h, read-out: Activity
[7] = Growth inhibition of human HOP92 cells assessed as cell growth at 10 uM incubated for 48 hrs by sulforhodamine B assay; assay type: functional; conditions: HOP-92, 48 h, read-out: Activity
Malme-3M = assay: Growth inhibition of human MALME-3M cells assessed as cell growth at 10 uM incubated for 48 hrs by sulforhodamine B assay; assay type: functional; conditions: read-out: Activity
[8] = Growth inhibition of human RPMI8226 cells assessed as cell growth at 10 uM incubated for 48 hrs by sulforhodamine B assay; assay type: functional; conditions: RPMI-8226, 48 h, read-out: Activity
M14 = assay: Growth inhibition of human M14 cells assessed as cell growth at 10 uM incubated for 48 hrs by sulforhodamine B assay; assay type: functional; conditions: M14, 48 h, read-out: Activity
SK-MEL-28 = assay: Growth inhibition of human SK-MEL-28 cells assessed as cell growth at 10 uM incubated for 48 hrs by sulforhodamine B assay; assay type: functional; conditions: SK-MEL-28, 48 h, read-out: Activity
786-0 = assay: Growth inhibition of human 786-0 cells assessed as cell growth at 10 uM incubated for 48 hrs by sulforhodamine B assay; assay type: functional; conditions: 786-0, 48 h, read-out: Activity

Compound	growth at 10 µM [1] [%]	growth at 10 µM [2] [%]	growth at 10 µM (A549) [%]	growth at 10 µM (SNB-75) [%]	growth at 10 µM (HOP-62) [%]	growth at 10 µM [3] [%]	growth at 10 µM (SF-268) [%]	growth at 10 µM (UACC-257) [%]	growth at 10 µM (OVCAR-8) [%]	growth at 10 µM (HT-29) [%]	growth at 10 µM (NCI-H460) [%]	growth at 10 µM (SK-MEL-2) [%]	pIC50 (DU-145)	growth at 10 µM [4] [%]	growth at 10 µM (IGROV-1) [%]	growth at 10 µM (HL-60(TB)) [%]	growth at 10 µM (SN12C) [%]	growth at 10 µM (T47D) [%]	growth at 10 µM [5] [%]	growth at 10 µM (SK-MEL-5) [%]	other results
O=C(O)c1c(Sc2ccc(Cl)cc2)c(O)nc2ccccc12	97.8	88.3	107	82.2	116	99	114	122	115	101	104	120	< 4.82	114	104	106	95.8	99.6	101	98.1	growth at 10 µM (CAKI-1): 76.3%; growth at 10 µM (SR): 106%; growth at 10 µM (MDA-MB-435): 102%; growth at 10 µM (PC-3): 93.2%; growth at 10 µM (NCI-H322M): 101%; growth at 10 µM (K562): 112%; growth at 10 µM (MDA-MB-468): 105%; growth at 10 µM (U-251): 99.6%; growth at 10 µM [6]: 102%; growth at 10 µM (NCI-H226): 106%; growth at 10 µM [7]: 73%; growth at 10 µM (Malme-3M): 107%; growth at 10 µM [8]: 98.1%; growth at 10 µM (M14): 107%; growth at 10 µM (SK-MEL-28): 99%; growth at 10 µM (786-0): 104%
O=c1c2ccc(Cl)cc2sc2c(Cl)nc3ccccc3c12	103	95.1	105	77.9	82	90.3	110	104	102	99.7	103	95.5	< 4.82	103	96.1	99.3	95.9	110	123	97.4	growth at 10 µM (CAKI-1): 94.3%; growth at 10 µM (SR): 89%; growth at 10 µM (MDA-MB-435): 101%; growth at 10 µM (PC-3): 91.6%; growth at 10 µM (NCI-H322M): 100%; growth at 10 µM (K562): 101%; growth at 10 µM (MDA-MB-468): 98.6%; growth at 10 µM (U-251): 102%; growth at 10 µM [6]: 98.1%; growth at 10 µM (NCI-H226): 83.4%; growth at 10 µM [7]: 90.8%; growth at 10 µM (Malme-3M): 95.9%; growth at 10 µM [8]: 100%; growth at 10 µM (M14): 106%; growth at 10 µM (SK-MEL-28): 102%; growth at 10 µM (786-0): 105%
